Key:
[1] = target: KRAS^WT (Homo sapiens, UniProt P01116+P62937); assay: RAS-binding affinity (KD2) of compound-bound CypA; conditions: average of 8 replicate experiments, read-out: affinity of the RMC-6236:CypA binary complex (KD2)
[2] = tested on: NCI-H441 and Capan-2 xenograft tumors; assay: PK/Efficacy modeling (Simeoni tumor growth model); parameters: species or system mouse
Excerpt: Akaike information criterion values were used to discriminate between model structure and fit. Individual data points (n = 3/time point) were averaged from sparsely sampled PK/PD data to create mean profiles, which were used for subsequent modeling. A graphical representation of the model and all parameter estimates and equations can be found in the Supplementary Information (Supplementary Fig. S6; Supplementary Table S8l Supplementary Method).
For PK modeling, whole blood PK data from single or repeat dose administration of 25 or 40 mg/kg RMC-6236 to NCI-H441 xenograft tumor-bearing mice were used (Supplementary Table S9). RMC-6236 blood PK was best described using a one-compartment model with first-order absorption and elimination. Because intravenous data were not included in the modeling, the model was parameterized in terms of apparent clearance (CL/F) and volume of distribution (V/F), where F is the oral bioavailability.
Tumor growth was modeled using the approach previously described by Simeoni and colleagues ([45]). As detailed previously, tumor volume data were collected from mice bearing either NCI-H441 or Capan-2 xenograft tumors in 28-day efficacy studies (Supplementary Table S9). Estimated intrinsic tumor growth parameters include initial tumor volume, W0, which was set to the observed initial tumor volume, and the exponential and linear growth rates constants, λ0 and λ1, which were estimated from vehicle-treated animal tumor growth. Drug-specific parameters include a measure of drug potency, k2, and a transfer rate constant, k1, which describes cell death kinetics. A tumor stasis concentration threshold (CT) was calculated as λ0/k2 and converted to a human equivalent by adjusting for species differences in blood-plasma partitioning and plasma protein binding as discussed in Supplementary Methods. Human PK parameters were predicted via multispecies allometric scaling or assigned as the preclinical average and used to simulate mean steady-state human exposure at various dose levels.
Intrinsic tumor growth parameters include initial tumor volume, W0, which was set to the observed initial tumor volume, and the exponential and linear growth rates constants, λ0 and λ1, which were estimated from vehicle-treated animal tumor growth and fixed. Drug-specific parameters include a measure of drug potency, k2, and a transfer rate constant, k1, which describes cell death kinetics. Estimates of k2 were dose-dependent and were inversely related to dose, leading to underestimation of drug potency at dose levels that saturate cell killing. […] A tumor stasis concentration threshold (CT) was calculated as λ0/k2.

[3] = Plasma protein binding; format: in vitro ADME; conditions: human, humans
[4] = tested on: CC3 in colon; assay: IHC whole-slide quantification; format: in vivo, mouse; conditions: control 0.318
Description: (§1) All tissues were fixed for up to 24 hours using 10% neutral buffered formalin and then moved to 70% ethanol for long-term storage. FFPE sections (4 µm) were stained on the Biocare intelliPATH automated staining platform using the manufacturer’s recommended settings.
(§2) All tissue sections were incubated with Biocare Peroxidase Blocker (Biocare, cat no. PX968) and Background Punisher (Biocare, cat no. BP974M) to block nonspecific background. MACH4 HRP-polymer Detection System (Biocare, cat no. MRH534) was used to detect rabbit primary antibodies.
(§3) DAB-stained slides were scanned and digitized with a Huron TissueScope LE120 whole-slide scanner at 200× magnification.

[5] = tested on: CC3 in ear skin; assay: IHC whole-slide quantification; format: in vivo, mouse; conditions: control 2.2
Description: as §1, §2, §3

[6] = tested on: Ki67 in Capan-2 xenograft tumors; assay: IHC whole-slide quantification; format: in vivo, mouse; conditions: control 49.7
Description: as §1
Anti–Ki-67 rabbit monoclonal antibody (Biocare, cat no. CRM325, clone: SP6) was used at 1:50 with citrate-based pH 6.2 heat-induced epitope retrieval; an isotype control (rabbit IgG) was used under the same conditions.
as §2, §3
The EpCAM staining was used to identify epithelial cells. First, the area to be analyzed was delineated, excluding necrotic regions. The random forest tumor classifier from the HALO Image Analysis package was used to identify the tumor compartment. Three classes were created: glass, tumor (EpCAM-positive), and stroma. The tumor class mark was then copied onto the serial sections stained with various markers to perform the image analysis only on the tumor compartment.
Quantification of Ki-67 was performed with the HALO Image Analysis software from Indica Labs using the CytoNuclear module. The analysis was performed only on the tumor compartment copied from the EpCAM slide. The software was tuned to detect all the nuclei based on the hematoxylin stain (blue color) and to detect positive DAB staining (brown color). Total positivity was plotted and subjected to statistical analysis using GraphPad Prism (Dunnett multiple comparisons test).

[7] = Mouse TGI Model Parameters (Capan-2), Reported for 10 mg/kg level
[8] = Mouse TGI Model Parameters (Capan-2), Reported for 25 mg/kg level
[9] = Mouse TGI Model Parameters (NCI-H441), Reported for 5 mg/kg level
[10] = Mouse TGI Model Parameters (NCI-H441), Reported for 10 mg/kg level
[11] = Mouse TGI Model Parameters (NCI-H441), Reported for 25 mg/kg level
[12] = simulated mean human PK profiles

Sequence of KRAS^WT (P01116 1-169 isoform P01116-2): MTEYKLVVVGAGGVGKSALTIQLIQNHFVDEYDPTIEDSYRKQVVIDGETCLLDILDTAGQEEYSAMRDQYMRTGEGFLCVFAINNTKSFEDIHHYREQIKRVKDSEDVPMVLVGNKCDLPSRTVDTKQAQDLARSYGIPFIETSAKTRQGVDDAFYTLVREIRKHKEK
Sequence of KRAS^WT (P62937 whole entry): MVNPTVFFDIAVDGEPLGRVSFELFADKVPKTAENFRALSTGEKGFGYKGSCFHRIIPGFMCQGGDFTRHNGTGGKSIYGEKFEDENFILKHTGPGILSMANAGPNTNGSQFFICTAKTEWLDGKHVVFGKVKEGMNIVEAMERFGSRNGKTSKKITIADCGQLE

With `CCn1c(-c2cc(N3CCN(C)CC3)cnc2[C@H](C)OC)c2c3cc(ccc31)-c1csc(n1)C[C@H](NC(=O)[C@H]1C[C@@H]1C)C(=O)N1CCC[C@H](N1)C(=O)OCC(C)(C)C2` [RMC-6236] the Kd [1] was 154 nM, the “K1 (cell death kinetics)” value ([2]; Capan-2 PK-Efficacy model) was 0.11 h⁻¹ and the “K2 (drug potency)” value ([2]; Capan-2 PK-Efficacy model) was 1.61e-05 L/h/nmol. The K1 [2, 7] was 0.1139 h⁻¹, the K2 [2, 7] was 1.61e-05 L/h/nmol and the K1 [2, 8] was 9.2134 h⁻¹. It also gave a K2 [2, 8] of 8.7e-06 L/h/nmol, a K1 [2, 9] of 47.0362 h⁻¹ and a K2 [2, 9] of 6.87e-05 L/h/nmol. It also gave a K1 [2, 10] of 6.512 h⁻¹, a K2 [2, 10] of 4.69e-05 L/h/nmol and a K1 [2, 11] of 3.0924 h⁻¹. The K2 [2, 11] was 2.37e-05 L/h/nmol, the “K1 (cell death kinetics)” value ([2]; NCI-H441 PK-Efficacy model) was 6.51 h⁻¹ and the “K2 (drug potency)” value ([2]; NCI-H441 PK-Efficacy model) was 4.69e-05 L/h/nmol. For the same compound, the “average blood threshold concentration (CT) required for tumor stasis” value ([2]; across NCI-H441 and Capan-2 models) was 158 nmol/L, the “human equivalent CT” value ([2]; corrected for blood–plasma partitioning and plasma protein binding) was “approximately 80 nmol/L” and the “daily dose in mice projected to maintain Cavg above CT” value ([2]; mice) was “approximately 9 mg/kg”. For the same compound, the “human daily dose anticipated to maintain Cavg above the estimated CT” value [2, 12] was “approximately 100 mg”, the “human daily dose projected to achieve Cavg of 25 mg/kg daily in mice” value [2, 12] was “approximately 300 mg” and the fraction unbound [3] was 0.023. The “CC3 (% positive cells)” value ([4]; Colon (25 mg/kg ), 8h) was 0.0833%, the “CC3 (% positive cells)” value ([4]; Colon (25 mg/kg ), 24h) was 0.237% and the “CC3 (% positive cells)” value ([4]; Colon (25 mg/kg ), 48hr) was 0.4%. For the same compound, the “CC3 (% positive cells)” value ([4]; Colon (25 mg/kg x 7d), 8h) was 0.177%, the “CC3 (% positive cells)” value ([4]; Colon (25 mg/kg x 7d), 24h) was 0.277% and the “CC3 (% positive cells)” value ([4]; Colon (25 mg/kg x 7d), 48hr) was 0.143%. For the same compound, the “CC3 (% positive cells)” value ([5]; Ear Skin (25 mg/kg x7d), 8h) was 2.0%, the “CC3 (% positive cells)” value ([5]; Ear Skin (25 mg/kg x7d), 24h) was 1.5% and the “CC3 (% positive cells)” value ([5]; Ear Skin (25 mg/kg x7d), 48hr) was 1.5%. For the same compound, the “CC3 (% positive cells)” value ([5]; Ear Skin (25 mg/kg), 8h) was 2.4%, the “CC3 (% positive cells)” value ([5]; Ear Skin (25 mg/kg), 24h) was 1.5% and the “CC3 (% positive cells)” value ([5]; Ear Skin (25 mg/kg), 48hr) was 1.3%. For the same compound, the “Ki67 (% positive cells)” value ([6]; Capan-2 (25 mg/kg x 7d), 8h) was 9.6%, the “Ki67 (% positive cells)” value ([6]; Capan-2 (25 mg/kg x 7d), 24h) was 13.0% and the “Ki67 (% positive cells)” value ([6]; Capan-2 (25 mg/kg x 7d), 48hr) was 19.2%. For the same compound, the “Ki67 (% positive cells)” value ([6]; Capan-2 (25 mg/kg), 8h) was 44.9%, the “Ki67 (% positive cells)” value ([6]; Capan-2 (25 mg/kg), 24h) was 47.4% and the “Ki67 (% positive cells)” value ([6]; Capan-2 (25 mg/kg), 48hr) was 26.3%.

From publication PMC11149917, “Translational and Therapeutic Evaluation of RAS-GTP Inhibition by RMC-6236 in RAS-Driven Cancers” (Cancer Discovery, 2024)
